From patent US20060142269A1, “New compounds” (priority 2004, published 2006) come the findings set out here.

For test [1], the target named is T1, human 5-HT6 receptor (Homo sapiens, UniProt P50406).
T1 construct: expressed in transfected cells; host or cells: HEK293 (G-418 selected)
The experiment in a line: 5-HT6 receptor intrinsic activity assay (inhibition of 5-HT induced increase in cAMP in HEK293/5-HT6 cells). The conditions noted are these: read-out: Antagonist potency at the human 5-HT6 receptor, IC50,corr. Type of test: cell-based. As for the experimental part: (1997) Neuropharmacology 36: 713-720). Briefly, HEK293/5-HT6 cells were seeded in polylysine coated 96-well plates at a density of 25,000/well and grown in DMEM (Dulbecco's Modified Eagle Medium) (without phenol-red) containing 5% dialyzed Foetal Bovine Serum for 48 h at 37° C. in a 5% CO2 incubator. The medium was then aspirated and replaced by 0.1 ml assay medium (Hanks Balance Salt Solution containing 20 mM HEPES, 1.5 mM isobutylmethylxanthine and 1 mg/ml bovine serum albumin). After addition of test substances, 50 μl dissolved in assay medium, the cells were incubated for 10 min at 37° C. in a 5% CO2 incubator. The medium was again aspirated and the cAMP content was determined using a radioactive cAMP kit (Amersham Pharmacia Biotech, BIOTRAK RPA559).

Test [2] concerns the target T1, human 5-HT6 receptor. The experiment in a line: 5-HT6 receptor binding assay ([3H]-LSD displacement, SPA, membranes of transfected HEK293 cells).
Where [3] appears, read: [3H]LSD 3 nM, HEK293 membranes, read-out: Binding affinity (Ki) at the human 5-HT6 receptor.

By pIC50 is commonly meant the negative decadic logarithm of the IC50, by convention in mol/L. A word on the pKi: it is the negative decadic logarithm of the Ki, by convention in mol/L.

pIC50, pKi: −log10 of the molar value. Structures can show the parent of a compound that is named as a salt. Where two headings read alike, the source gives them in different places.

T1 sequence (P50406 whole entry): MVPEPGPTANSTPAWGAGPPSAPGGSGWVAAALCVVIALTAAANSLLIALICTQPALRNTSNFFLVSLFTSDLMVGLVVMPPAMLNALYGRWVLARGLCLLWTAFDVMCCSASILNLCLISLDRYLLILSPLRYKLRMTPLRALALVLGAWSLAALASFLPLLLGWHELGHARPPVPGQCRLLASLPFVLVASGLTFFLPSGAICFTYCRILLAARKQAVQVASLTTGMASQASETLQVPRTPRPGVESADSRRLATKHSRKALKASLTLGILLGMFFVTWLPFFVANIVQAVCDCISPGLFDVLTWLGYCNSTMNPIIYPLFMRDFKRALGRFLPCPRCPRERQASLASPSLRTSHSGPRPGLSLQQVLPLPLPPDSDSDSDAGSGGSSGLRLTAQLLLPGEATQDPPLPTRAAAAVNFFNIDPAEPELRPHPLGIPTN

Consider `COc1ccc(C)cc1OS(=O)(=O)c1cc(CN2CCCNCC2)c2occc2c1` [Example 18, 2-Methoxy-5-methylphenyl 7-(1,4-diazepan-1-ylmethyl)-1-benzofuran-5-sulfonate trifluoroacetate], for which the pIC50 in test [1] is 6.31. Take `COc1ccc(C)cc1OS(=O)(=O)c1cc(N2CCNCC2)c2occc2c1` [Example 1, 2-Methoxy-5-methylphenyl 7-piperazin-1-yl-1-benzofuran-5-sulfonate, trifluoroacetate]: the pKi in test [2] (setting [3]) was 9.22. On to `NCCc1c[nH]c2ccc(O)cc12` [Example 5-HT, 5-hydroxytryptamine], for which, in test [2] (over three experiments), the Hill coefficient was 0.94 (SD 0.09).

For `COc1ccc(C)cc1OS(=O)(=O)c1cc(CN2CCN(C)CC2)c2occc2c1` [Example 5, 2-Methoxy-5-methylphenyl 7-[(4-methylpiperazin-1-yl)methyl]-1-benzofuran-5-sulfonate bis(trifluoroacetate)], the negative logarithm of the IC50 (pIC50) in test [1] was 7.31.

As for `O=S(=O)(Oc1ccccc1C(F)(F)F)c1cc(N2CCNCC2)c2occc2c1` [Example 3, 2-(Trifluoromethyl)phenyl 7-piperazin-1-yl-1-benzofuran-5-sulfonate, trifluoroacetate], the pKi in test [2] (setting [3]) was 8.70. In the case of `C[C@@H]1CN(Cc2cc(S(=O)(=O)Oc3ccccc3C(N)=O)cc3ccoc23)CCN1` [Example 16, 2-(Aminocarbonyl)phenyl 7-{[(3R)-3-methylpiperazin-1-yl]methyl}-1-benzofuran-5-sulfonate bis(trifluoroacetate)], in test [1], the pIC50 was 6.70. Consider `O=S(=O)(Oc1ccccc1Cl)c1cc(N2CCNCC2)c2occc2c1` [Example 2, 2-Chlorophenyl 7-piperazin-1-yl-1-benzofuran-5-sulfonate, trifluoroacetate], for which the negative-log Ki (pKi) in test [2] (setting [3]) was 8.64. In test [1], the pIC50 is 7.62. Consider `COc1cccc(OS(=O)(=O)c2cc(N3CCN[C@H](C)C3)c3occc3c2)c1OC` [Example 9, 2,3-Dimethoxyphenyl 7-[(3R)-3-methylpiperazin-1-yl]-1-benzofuran-5-sulfonate trifluoroacetate], for which the negative logarithm of the IC50 (pIC50) in test [1] is 7.31. Still for that read-out and setting: the figure for `CN1CCN(c2cc(S(=O)(=O)Oc3cccnc3)cc3ccoc23)CC1` [Example 7, Pyridin-3-yl 7-(4-methylpiperazin-1-yl)-1-benzofuran-5-sulfonate trifluoroacetate] is 7.14. In the case of `CN1C[C@@H](NS(=O)(=O)N(C)C)C[C@@H]2c3cccc4c3c(cn4C)C[C@H]21` [mesulergide], the negative-log Ki (pKi) in test [2] (over all average, 5-HT tested against two different membrane preparations, read-out: Ki value, inhibition of [3H]LSD binding (rank order of potency of unlabelled ligands)) is 5.71. Regarding `CC[C@@H](CO)NC(=O)[C@@H]1C=C2c3cccc4c3c(cn4C)C[C@H]2N(C)C1` [methysergide], in test [2], the negative-log Ki (pKi) is 6.32.
